Values of other authors in patent US7611833B2, “Yeast genes that affect viral replication” (priority 2001, dated 2009).
Read-outs that look alike come from different tables or passages of the source.

What was measured:
poliovirus [1] = tested on: poliovirus
poliovirus [2] = tested on: poliovirus; remark: listed apart in the source
HeLa cells = HeLa cells treated with oleic acid
poliovirus [3] = tested on: poliovirus; remark: listed apart in the source

Structure (SMILES)	RNA replication by poliovirus (poliovirus [1])	RNA replication by the alphavirus SFV (alphavirus SFV)	In vitro translation (poliovirus [2])	Poliovirus RNA replication (poliovirus [2])	Synthesis of lipids (HeLa cells)	Poliovirus RNA replication (poliovirus [3])
C/C=C/C/C=C/CCC(=O)[C@H]1O[C@H]1C(N)=O [Cerulenin]	inhibits RNA replication	inhibits RNA replication				
CCCCCCCC/C=C\CCCCCCCC(=O)O [oleic acid]			inhibited in vitro translation	disrupts poliovirus RNA replication	major changes in the synthesis of many lipids	disrupts poliovirus RNA replication
